Measured values as given in patent US20220409620A1, “REDUCING IMMUNOGENICITY TO PEGLOTICASE” (Horizon Pharma Rheumatology LLC, priority 2016, published 2022).

System: adult patients with uncontrolled gout
Assay: Serum uric acid (sUA) levels and sUA responder rate, open-label study of pegloticase with MTX (MIRROR OL)
Format: in vivo, human
Description: The primary objective is to estimate the response rate during Month 6 (Weeks 20, 22, and 24), as measured by the sustained normalization of serum uric acid (SUA) to <6 mg/dL for at least 80% of the time during Month 6 in subjects receiving KXX with MTX.
The primary efficacy outcome endpoint is the sustained normalization of SUA to <6 mg/dL for at least 80% of the time during month 6 (weeks 20, 22, and 24) in subjects receiving KXX with MTX. […] Participants who achieve this endpoint were classified as “responders.” Serum uric acid (SUA) responders may also be defined as participants achieving and maintaining SUA <6 mg/dL for at least 80% of the time during Month 6 (Weeks 20, 22, and 24).
Blood samples may be collected prior to each pegloticase infusion for measurement of SUA levels using the Beckman Coulter AU System Uric Acid procedure. Participants were declared “non-responders” if there were SUA measures >6 mg/dL at 2 consecutive study visits beginning with the week 2 visit. […] This assumption and subsequent discontinuation of pegloticase was consistent with the protocol of large phase III randomized controlled trials and the product label. A formal stopping rule was 2 occasions of SUA levels of greater than 6 mg/dL.
Clinical Chemistry—Blood samples were collected prior to each pegloticase infusion for measurement of SUA levels (primary efficacy parameter) using the Beckman Coulter AU System Uric Acid procedure. In this procedure uric acid is converted to hydrogen peroxide. Hydrogen peroxide reacts with reagent to produce a chromophore which is read bichromatically at 660/800 nm. The amount of dye formed is proportional to the uric acid concentration in the sample.
Serum samples for measurement of SUA levels were collected at the Screening Visit, the Week −4 Visit (prior to the first dose of MTX), and the Week −2 Visit during the MTX Run-in Period; within 48 hours prior to each pegloticase infusion and after the end of each pegloticase infusion prior to discharge from the site during the Pegloticase+IMM Period; at the non-infusion Week 52/End of Study/Early Termination Visits and at the Post Treatment 3 and 6 Month Follow-up Visits. Additional serum samples for SUA levels were collected at optional non-infusion (Frequent Sampling) Visits at Weeks 1 and 7. […] Subjects with SUA level >6 mg/dL at 2 consecutive visits beginning at Week 2 visit discontinued treatment, completed the End of Pegloticase Infusion Visit procedures within 2 weeks and continued the subject visits according to the protocol (without treatment).
Efficacy analyses were performed using the modified intention-to-treat (mITT) population, defined as all enrolled subjects who received ≥1 dose of pegloticase. The proportion of Month 6 responders was summarized, along with a 95% confidence interval for the proportion. The proportion of Month 3 and overall (Months 3 and 6 combined) responders was analyzed similarly.
A subject was declared a non-responder if the subject had SUA level >6 mg/dL at 2 consecutive study visits beginning with the Week 2 Visit. In addition, a subject who withdraws from study treatment for any reason after the first dose of pegloticase in the KXX+MTX Period and prior to Month 6 (for the primary endpoint) or Month 3 (for the secondary endpoint) was considered a non-responder if SUA values were not collected at the planned time points.
Patients were administered oral MTX (15 mg/week) and folate (1 mg/day) 4 weeks prior to the first pegloticase infusion (Day 1) and throughout the pegloticase treatment period. Blood was drawn prior to each infusion to measure sUA level, monitor clinical parameters, and examine for ADA development. All patients followed typical IR prophylaxis protocols (fexofenadine one day before and the morning of each infusion and acetaminophen and IV corticosteroid the morning of each infusion).

[1] = Day 1 - Post-Infusion, mITT Population
[2] = Early Termination Visit, mITT Population
[3] = End of Pegloticase Infusions Visit, mITT Population
[4] = Month 6 sUA Non-Responders, Day 1-Post-Infusion, n=3
[5] = Month 6 sUA Non-Responders, Early Termination Visit, n=3
[6] = Month 6 sUA Non-Responders, Week 1, n=2
[7] = Month 6 sUA Non-Responders, Week 2-Post-Infusion, n=3
[8] = Month 6 sUA Non-Responders, Week 2-Pre-Infusion, n=3
[9] = Month 6 sUA Non-Responders, Week 4-Pre-Infusion, n=3
[10] = Month 6 sUA Non-Responders, Week 8-Post-Infusion, n=1
[11] = Month 6 sUA Non-Responders, Week 8-Pre-Infusion, n=1
[12] = Month 6 sUA Non-Responders, Week 10-Pre-Infusion, n=1
[13] = Month 6 sUA Responders, Day 1-Post-Infusion, n=8

Substance: pegloticase
- Serum Uric Acid, Change from Baseline, Mean (SD) [1]: −7.29 (2.254) mg/dL
- Serum Uric Acid, Change from Baseline, Median [1]: -7.30 mg/dL
- Serum Uric Acid, Observed, Mean (SD) [1]: 1.18 (1.417) mg/dL
- Serum Uric Acid, Observed, Median [1]: 0.30 mg/dL
- sUA <6 mg/dL, n (%) [1]: 11 (100%)
- Serum Uric Acid, Change from Baseline, Mean (SD) [2]: −0.57 (0.635) mg/dL
- Serum Uric Acid, Change from Baseline, Median [2]: -0.20 mg/dL
- Serum Uric Acid, Observed, Mean (SD) [2]: 8.17 (0.058) mg/dL
- Serum Uric Acid, Observed, Median [2]: 8.20 mg/dL
- sUA <6 mg/dL, n (%) (Early Termination Visit, mITT Population, number of subjects (% not given)): 0
- Serum Uric Acid, Change from Baseline, Mean (SD) [3]: −8.50 (1.556) mg/dL
- Serum Uric Acid, Change from Baseline, Median [3]: -8.50 mg/dL
- Serum Uric Acid, Observed, Mean (SD) [3]: 0.30 (0.000) mg/dL
- Serum Uric Acid, Observed, Median [3]: 0.30 mg/dL
- sUA <6 mg/dL, n (%) [3]: 2 (100%)
- Serum Uric Acid, Change from Baseline, Mean (SD) [4]: −6.60 (2.848) mg/dL
- Serum Uric Acid, Change from Baseline, Median [4]: -7.20 mg/dL
- Serum Uric Acid, Observed, Mean (SD) [4]: 2.13 (2.438) mg/dL
- Serum Uric Acid, Observed, Median [4]: 1.20 mg/dL
- sUA <6 mg/dL, n (%) [4]: 3 (100%)
- Serum Uric Acid, Change from Baseline, Mean (SD) [5]: −0.57 (0.635) mg/dL
- Serum Uric Acid, Change from Baseline, Median [5]: -0.20 mg/dL
- Serum Uric Acid, Observed, Mean (SD) [5]: 8.17 (0.058) mg/dL
- Serum Uric Acid, Observed, Median [5]: 8.20 mg/dL
- sUA <6 mg/dL, n (%) [5]: 0%
- Serum Uric Acid, Change from Baseline, Mean (SD) [6]: −8.10 (0.000) mg/dL
- Serum Uric Acid, Change from Baseline, Median [6]: -8.10 mg/dL
- Serum Uric Acid, Observed, Mean (SD) [6]: 0.30 (0.000) mg/dL
- Serum Uric Acid, Observed, Median [6]: 0.30 mg/dL
- sUA <6 mg/dL, n (%) [6]: 2 (100%)
- Serum Uric Acid, Change from Baseline, Mean (SD) [7]: −8.43 (0.577) mg/dL
- Serum Uric Acid, Change from Baseline, Median [7]: -8.10 mg/dL
- Serum Uric Acid, Observed, Mean (SD) [7]: 0.30 (0.000) mg/dL
- Serum Uric Acid, Observed, Median [7]: 0.30 mg/dL
- sUA <6 mg/dL, n (%) [7]: 3 (100%)
- Serum Uric Acid, Change from Baseline, Mean (SD) [8]: −5.17 (4.225) mg/dL
- Serum Uric Acid, Change from Baseline, Median [8]: -5.70 mg/dL
- Serum Uric Acid, Observed, Mean (SD) [8]: 3.57 (3.775) mg/dL
- Serum Uric Acid, Observed, Median [8]: 2.70 mg/dL
- sUA <6 mg/dL, n (%) [8]: 2 (66.7%)
- Serum Uric Acid, Change from Baseline, Mean (SD) [9]: −3.70 (4.744) mg/dL
- Serum Uric Acid, Change from Baseline, Median [9]: -1.80 mg/dL
- Serum Uric Acid, Observed, Mean (SD) [9]: 5.03 (4.177) mg/dL
- Serum Uric Acid, Observed, Median [9]: 6.60 mg/dL
- Serum Uric Acid, Change from Baseline, Mean (SD) [10]: −9.10 (NE) mg/dL
- Serum Uric Acid, Change from Baseline, Median [10]: -9.10 mg/dL
- Serum Uric Acid, Observed, Mean (SD) [10]: 0.30 (NE) mg/dL
- Serum Uric Acid, Observed, Median [10]: 0.30 mg/dL
- sUA <6 mg/dL, n (%) [10]: 1 (100%)
- Serum Uric Acid, Change from Baseline, Mean (SD) [11]: −0.50 (NE) mg/dL
- Serum Uric Acid, Change from Baseline, Median [11]: -0.50 mg/dL
- Serum Uric Acid, Observed, Mean (SD) [11]: 8.90 (NE) mg/dL
- Serum Uric Acid, Observed, Median [11]: 8.90 mg/dL
- sUA <6 mg/dL, n (%) [11]: 0%
- Serum Uric Acid, Change from Baseline, Mean (SD) [12]: −1.30 (NE) mg/dL
- Serum Uric Acid, Change from Baseline, Median [12]: -1.30 mg/dL
- Serum Uric Acid, Observed, Mean (SD) [12]: 8.10 (NE) mg/dL
- Serum Uric Acid, Observed, Median [12]: 8.10 mg/dL
- sUA <6 mg/dL, n (%) [12]: 0%
- Serum Uric Acid, Change from Baseline, Mean (SD) [13]: −7.55 (2.158) mg/dL
- Serum Uric Acid, Change from Baseline, Median [13]: -7.50 mg/dL
- Serum Uric Acid, Observed, Mean (SD) [13]: 0.83 (0.798) mg/dL
